According to US7208503B2, “Angiogenesis inhibiting 5-substituted-1,2,4-thiadiazolyl derivatives” (Janssen Pharmaceutica N.V., priority 2000, dated 2007):

Test system: rat aortic ring microvessel formation
Assay: rat aortic ring model of angiogenesis (microvessel formation)
Assay type: cell-based
Settings: 192 h; in vitro rat aortic rings, microvessel area after eight days in culture, compared to vehicle-treated control rings; read-out: IC50 (inhibition of microvessel formation, angiogenesis inhibitory activity)
Experimental: Angiogenesis inhibitory activity was measured in vitro using the rat aortic ring model of angiogenesis as described by Nicosia, R. F. and Ottinetti in “Laboratory Investigation”, vol. 63, p. 115, 1990. The ability of compounds to inhibit microvessel formation was compared to vehicle-treated control rings. Quantitation (microvessel area) following eight days in culture was performed using an image analysis system, consisting of a light microscope, a CCD camera and an automated, custom-designed image analysis program as described by Nissanov, J., Tuman, R. W., Gruver, L. M., and Fortunato, J. M. in “Laboratory Investigation”, vol 73 (#5), p. 734, 1995. Compounds were tested at several concentrations for determination of inhibitory potency (IC50's).

Row | IC50 [nM] | SMILES
1 | < 10 | Cc1nsc(-c2ccc(N3CCN(c4cccc(C(F)(F)F)c4)CC3)cc2)n1 [Compound 2, 1-[4-(3-methyl-1,2,4-thiadiazol-5-yl)phenyl]-4-[3-(trifluoromethyl)phenyl]piperazine]
2 | < 10 | Cc1nsc(-c2ccc(N3CCN(c4cccc(C(F)(F)F)c4)CC3)nc2)n1 [Compound 6, 1-[5-(3-methyl-1,2,4-thiadiazol-5-yl)-2-pyridinyl]-4-[3-(trifluoromethyl)-phenyl]-piperazine]
